Assay results reported in patent publication US20070004743A1, “Intranasal administration of mc4-r agonists” (priority 2002, published 2007).

Legend:
ob/ob mice [1] = assay: Intranasal (IN) efficacy, food intake in fasted ob/ob mice; format: in vivo
Method: Subjects: ob/ob mice; approximately 10 weeks old males; body weight 50-60 grams.
The mice were divided into the following groups: • 1) Mice received only vehicle. The vehicle was one of the following: water, 10 mM phosphate buffer, 5% captisol in 10 mM phosphate buffer (see Table 1 for details). • 2) Mice received a compound of an embodiment of the present invention at a dosage of 1 mg/kg. • 3) Mice received a compound of an embodiment of the present invention at a dosage of 3 mg/kg. • 4) Mice received a compound of an embodiment of the present invention at a dosage of 6 mg/kg. n=6-8 animals per group
Note: For compound 1 and compound 2, the 1 mg/kg group was not included.
Animals were fasted overnight (˜16 hours), and an MC4-R agonist compound as described in Tables 1-3 was administered at 8:30 am next day. The administration volume was 20-25 μl/50 grams of body weight. […]
IN Efficacy Procedure: Mice were fasted overnight. […] Food weight was measured at 1, 2, 3, 4, 6, and 8 hours following the dosing. […]
(§1) IN Efficacy Procedure: Mice were fasted overnight. […] Food weight was measured at 1, 2, 3, 4, 6, and 8 hours following the dosing.
as §1
IN Efficacy Procedure: Mice were fasted overnight. […] Food weight was measured at 1, 2, 3, 4, and 6 hours following the dosing.

ob/ob mice [2] = assay: Oral (PO) efficacy, food intake in fasted ob/ob mice; format: in vivo; details: 30 mg/kg given orally, FIG. 1B
Method: Subjects: ob/ob mice, ˜10 weeks old males. Body weight ˜50 grams.
PO Efficacy Groups: • 1) Vehicle=water • 2) Compound 1=200 μl of 2.5 mg/ml (10 mg/kg) • 3) Compound 1=200 μl of 7.5 mg/ml (30 mg/kg) n=8/group fasted
PO Efficacy Procedure: Mice were fasted overnight. At about 9:00 am the next morning, they were dosed with 200 μl of vehicle or compound solution by oral gavage. Mice were fed with pre-weighed food immediately after dosing, and had access to water the entire time. Food weight was measured at 1, 2, 3, 4, 6, and 24 hours following the dosing.

[3] = acute intranasal, humans; ACTH4-10 1 mg, desacetyl-αMSH equimolar 1.68 mg; cited from earlier work
[4] = humans, cited from earlier work; for body fat: intranasal administration
[5] = after intranasal administration

Row | Molecule | reduction in cumulative food intake (ob/ob mice [1]; 3 mg/kg administered intranasally, FIG. 1A) | increase in biological effect, intranasal versus oral, dose-normalised (ob/ob mice [1]; ((59%/39%)÷(3/30)), 3 mg/kg intranasal vs 30 mg/kg oral) | decrease in cumulative food intake (ob/ob mice [2]) | processing negativity (PN) of the ERP over frontal and central cortical areas [3] | body fat [4] | insulin levels [4, 5] | plasma leptin levels [4, 5]
1 | COc1ccc(CCNC(=O)c2ccc(N/C(=N/[C@H]3C[C@H]4C[C@@H]([C@@H]3C)C4(C)C)N3CCN[C@@H](C)C3)cc2)c(F)c1 [Compound 1] | 59% | approximately 15.1 times | 39% |  |  |  | 
2 | desacetyl-αMSH |  |  |  | ineffective | nonsignificant |  | 
3 | melanocyte stimulating hormone/adrenocorticotropin4-10 (MEHFRWG; Corticotropin; UniProt P01189 141-147, looked up, fragment) [MSH/ACTH4-10] |  |  |  | reduced | reduced body fat | decreased | decreased
